Laboratory results published in patent publication US11352396B2, “Antimicrobial peptides and methods of using same” (Zoetis Services LLC, priority 2017, dated 2022).

Columns and labels:
[1] = test system: S. aureus ATCC 29213; format: cell-based; set-up: key to SA 29213: MIC in μM (lowest conc. with no visible growth); conditions: S. aureus 29213, Table 6
Summary of the method: (§1)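 Broth microdilution followed CLSI VET01-S2, with peptides serially diluted to in-assay concentrations of 50 μM to 0.05 μM. A 0.5 McFarland inoculum diluted 1:250 in Mueller-Hinton Broth was incubated with peptide for 18-20 hours. MIC was read visually as the first well without visible growth.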

[2] = test system: cRBC; format: cell-based, canine
Summary of the method: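 Percent lysis, measured by absorbance at 405 nm, used 1% Triton X-100 as full effect and phosphate buffer as zero. Peptides spanned 50 µM–0.05 µM and were held with plasma-depleted washed erythrocytes at 37 °C for 1 h.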

[3] = test system: E. coli ATCC 25922; format: cell-based; conditions: E. coli 25922, Table 6
Summary of the method: as §1

[4] = test system: Canine-derived epithelial keratinocyte (CPEK) cells; format: cell-based
Summary of the method: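 Viability was read by CellTiter-Glo luminescence after overnight exposure (37 °C, 5% CO2) of canine keratinocytes to a peptide range of 50–0.05 μM. Percent effect used phosphate buffer as the zero control and 0.1% Triton X-100 as the full-effect control.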

[5] = test system: MRSP (Methicillin-Resistant Staphylococcus pseudintermedius); experiment: MIC against selected strains of MRSP; format: cell-based; set-up: key to MIC MRSP 72192 / MIC MRSP 76923 / MR 71994 / Mr 88493 / MR 72035 / MR 72192 / MR 76923 / MR 79882 / MR 80279 / MR 81926 / MR 86002 / MR 87665: MIC in μM (visual, first well with no growth); conditions: for MR 71994: MRSP strain 71994, Table 6; for MR 72035: MRSP strain 72035, Table 6; for MR 72192: MRSP strain 72192, Table 6; for MR 76923: MRSP strain 76923, Table 6; for MR 79882: MRSP strain 79882, Table 6; for MR 80279: MRSP strain 80279, Table 6; for MR 81926: MRSP strain 81926, Table 6; for MR 86002: MRSP strain 86002, Table 6; for MR 87665: MRSP strain 87665, Table 6; for Mr 88493: MRSP strain 88493, Table 6
Summary of the method: (§2)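 MIC read by eye as the first well showing no growth after 18–20 h incubation. Cultures at 0.5 McFarland were diluted 1:250 in Mueller-Hinton broth and exposed to peptide over 50 μM–0.05 μM in the assay, per CLSI VET01-S2 microbroth method.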

[6] = test system: MSSP (Methicillin-Susceptible Staphylococcus pseudintermedius); experiment: MIC against selected strains of MSSP; format: cell-based; set-up: MIC MSSP 49051 / MIC MSSP 81923 / MIC MSSP 84250 / Effect on MSSP 86000 / Effect on MSSP 72036 / Effect on MSSP 78032: unit not given beside the values; Effect on MSSP 71990 / Effect on MSSP 86001 / Effect on MSSP 72191 / Effect on MSSP 76986 / Effect on MSSP 77378 / Effect on MSSP 81923 / Effect on MSSP 84250 / Effect on MSSP 84658: unit: µM; conditions: for SP 49051: S. pseudintermedius 49051, Table 6; for Effect on MSSP 71990: strain 71990, Table 5; for Effect on MSSP 72036: strain 72036, Table 5; for Effect on MSSP 72191: strain 72191, Table 5; for Effect on MSSP 76986: strain 76986, Table 5; for Effect on MSSP 77378: strain 77378, Table 5; for Effect on MSSP 78032: strain 78032, Table 5; for Effect on MSSP 81923: strain 81923, Table 5; for Effect on MSSP 84250: strain 84250, Table 5; for Effect on MSSP 84658: strain 84658, Table 5; for Effect on MSSP 86000: strain 86000, Table 5; for Effect on MSSP 86001: strain 86001, Table 5
Summary of the method: as §2

Row | Substance | SA 29213 [1] | cRBC (50 μM) [2] | EC 25922 [3] [µM] | CPEK (50 μM) [4] | MR 71994 [5] | MR 72035 [5] | MR 72192 [5] | MR 76923 [5] | MR 79882 [5] | MR 80279 [5] | MR 81926 [5] | MR 86002 [5] | MR 87665 [5] | Mr 88493 [5] | SP 49051 [6] | Effect on MSSP 71990 [6] | Effect on MSSP 72036 [6] | Effect on MSSP 72191 [6] | Effect on MSSP 76986 [6] | Effect on MSSP 77378 [6] | other results
1 | 108 (KWCFRVCYGGICYRRCRD; Artificial Antimicrobial peptide) [compound 108] | 12.5 | 27.7 | 0.8 | 9.6 | 3.1 | 3.1 | 3.1 | 3.1 | 3.1 | 3.1 | 3.1 | 3.1 | 3.1 | 3.1 | 3.1 | 3.1 | 3.1 | 3.1 | 3.1 | 3.1 | Effect on MSSP 78032 [6]: 3.1; Effect on MSSP 81923 [6]: 3.1; Effect on MSSP 84250 [6]: 3.1; Effect on MSSP 84658 [6]: 3.1; Effect on MSSP 86000 [6]: 3.1; Effect on MSSP 86001 [6]: 3.1
2 | 109 (KWCFRVCYRRICYRRCRD; Artificial Antimicrobial peptide) [compound 109] | 3.1 | 99.8 | 1.6 | 19.2 | 1.6 | 1.6 | 1.6 | 1.6 | 0.8 | 1.6 | 1.6 | 1.6 | 1.6 | 1.6 | 1.6 | 1.6 | 1.6 | 1.6 | 1.6 | 1.6 | Effect on MSSP 78032 [6]: 1.6; Effect on MSSP 81923 [6]: 1.6; Effect on MSSP 84250 [6]: 1.6; Effect on MSSP 84658 [6]: 1.6; Effect on MSSP 86000 [6]: 1.6; Effect on MSSP 86001 [6]: 1.6
3 | 110 (KWCFRVCYRGYCYRRCRD; Artificial Antimicrobial peptide) [compound 110] | 6.2 | 46.3 | 1.6 | 10.7 | 3.1 | 3.1 | 3.1 | 3.1 | 1.6 | 1.6 | 3.1 | 3.1 | 3.1 | 3.1 | 3.1 | 1.6 | 3.1 | 3.1 | 1.6 | 1.6 | Effect on MSSP 78032 [6]: 1.6; Effect on MSSP 81923 [6]: 3.1; Effect on MSSP 84250 [6]: 3.1; Effect on MSSP 84658 [6]: 3.1; Effect on MSSP 86000 [6]: 3.1; Effect on MSSP 86001 [6]: 3.1
4 | 112 (KWCFRVCYRGICYRRCKD; Artificial Antimicrobial peptide) [compound 112] | 3.1 | 61.0 | 1.6 | 14.2 | 1.6 | 1.6 | 1.6 | 1.6 | 0.8 | 0.8 | 1.6 | 1.6 | 1.6 | 1.6 | 1.6 | 1.6 | 1.6 | 1.6 | 1.6 | 0.8 | Effect on MSSP 78032 [6]: 1.6; Effect on MSSP 81923 [6]: 1.6; Effect on MSSP 84250 [6]: 1.6; Effect on MSSP 84658 [6]: 1.6; Effect on MSSP 86000 [6]: 1.6; Effect on MSSP 86001 [6]: 1.6
5 | 113 (KWCFRVCYRGICYRRCAD; Artificial Antimicrobial peptide) [compound 113] | 6.2 | 86.3 | 1.6 | 15.7 | 1.6 | 1.6 | 1.6 | 1.6 | 1.6 | 1.6 | 1.6 | 1.6 | 1.6 | 1.6 | 1.6 | 1.6 | 1.6 | 1.6 | 1.6 | 1.6 | Effect on MSSP 78032 [6]: 1.6; Effect on MSSP 81923 [6]: 1.6; Effect on MSSP 84250 [6]: 1.6; Effect on MSSP 84658 [6]: 1.6; Effect on MSSP 86000 [6]: 1.6; Effect on MSSP 86001 [6]: 1.6
